The source of these data is patent publication US12729194B2, “Compounds for the treatment of human immunodeficiency virus” (priority 2019, dated 2026).

One test relates to HIV-1 with HIV-1AD8 Env. Nature of the test: microbe, parasite or virus in culture. It counts as cell-based. The note with it: for IC50: Human immunodeficiency virus 1, Cf2Th-CD4/CCR5 target cells, 48 hours, luciferase, means and standard errors of four experiments, read-out: 50% inhibitory concentration (IC50), AD8; for Potency of inhibition of HIV-1 infection (in words): Table 1 HIV-1 Envs.

Test [1] relates to HIV-1AD8 Env on VLPs. Nature of the test: Shedding of gp120 from VLP Env. As to conditions: 4° C. and 37° C., 4 days, no detergent. On the procedure:
Shedding of gp120 from VLP Env: The effect of compounds on the spontaneous shedding of gp120 from VLP Env was evaluated. VLPs with the wild-type HIV-1AD8 Env were prepared from the supernatants of A549-Gag/Env cells, as described above. The VLPs were suspended in PBS, to which was added either DMSO or a compound described herein. An aliquot of the VLP suspension in PBS/DMSO was processed as described below to serve as a Day 0 control. The VLP suspensions were incubated for 4 days at 4° C., room temperature or 37° C. (with gentle rocking). Then the VLPs were pelleted (100,000×g for 30 min at 4° C.). The pellets and supernatants were boiled in LDS sample buffer and analyzed by Western blotting with either 1:2000 goat anti-gp120 polyclonal antibody (ThermoFisher) and HRP-conjugated rabbit anti-goat IgG antibody, or with 1:5000 rabbit anti-Gag p55/p24/p17 antibody (Abcam) and HRP-conjugated goat anti-rabbit IgG antibody (Abcam).

The test system of test [2] is HIV-1 with JR-FL S375W Env. It counts as cell-based. The note with it: Cf2Th-CD4/CCR5 target cells, 48 hours, luciferase; read-out: 50% inhibitory concentration (IC50), JR-FL S375W.
Test [3] has as its system envelope glycoproteins of the amphotropic murine leukemia virus (AMLV). Nature of the test: microbe, parasite or virus in culture. Type of test: cell-based. The note with it: Cf2Th-CD4/CCR5 target cells, 48 hours, luciferase, specificity control, read-out: 50% inhibitory concentration (IC50), AMLV.
Another test has as its system VLP HIV-1AD8 Env. Nature of the test: Antibody recognition of VLP-associated Env. As to conditions: compound plus UV irradiation. On the procedure: (§1) Characterization of VLP-associated Env: To prepare VLPs with HIV-1AD8 Env, 150-mm dishes of 30-40% confluent A549-Gag/Env cells were seeded and, on the following day, treated with 2 μg/ml doxycycline. Approximately 72 hours after induction, cell supernatants were harvested and cleared by low-speed centrifugation (500×g for 15 minutes at 4° C.) and 0.45-μ filtration. VLPs were pelleted by centrifugation at 100,000×g for one hour at 4° C. The resuspended VLP preparation was clarified by low-speed centrifugation. BMS-806 and compounds described herein were added to the clarified VLP-containing suspensions. In some cases, the VLP-compound mixtures were irradiated with a 100-watt, 365-nm ultraviolet (UV) lamp for 10 minutes at room temperature. For all UV studies, exposure of the samples to visible light was minimized.
For studies of the binding of ligands (antibodies, CD4-Ig and C34-Ig) to detergent-solubilized VLP Env, VLPs prepared as described above were pelleted (20,000×g for 30 minutes at 4° C.). The pellet was incubated with 1.5% Triton X-100 for 30 minutes at 4° C. The VLP lysates were centrifuged (20,000×g for 30 minutes at 4° C.) and the supernatants were incubated with ligands (10 μg/ml) in a 50-μl volume with 25 mg/ml of Protein A-Sepharose beads for one hour at 4° C. The beads were pelleted (1000 rpm for 1 minute at room temperature), washed three times with 1 ml wash buffer with 1% Triton X-100, suspended in LDS Sample Buffer and analyzed by Western blot, as described above.
In a second assay format, the effect of the compounds was analyzed on the binding of antibodies to Env on intact VLPs, in the absence of detergent. In this case, VLPs in A549-Gag/Env supernatants, clarified as described above, were pelleted at 100,000×g for one hour at 4° C. The pellet was resuspended in PBS and the VLPs pelleted at 20,000×g for 30 minutes at 4° C. The VLPs were resuspended in PBS and incubated with antibodies (10 μg/ml) in a 100-μl volume for one hour at 4° C. The VLPs were then pelleted (20,000×g for 30 minutes at 4° C.) and washed with PBS three times. The VLP pellet was then solubilized in 1.5% Triton X-100 for 30 minutes at 4° C., after which the VLP lysates were clarified by centrifugation at 20,000×g for 30 minutes at 4° C. The supernatants were incubated with 50 μl of Protein A-Sepharose beads for one hour at 4° C. The beads were pelleted (1000 rpm for 1 minute at room temperature), washed three times with 1 ml wash buffer with 1% Triton X-100, suspended in LDS Sample Buffer, and analyzed by Western blot, as described above.

The subject of the next test is HIV-1 with BG505 Env. Nature of the test: microbe, parasite or virus in culture. The note with it: Human immunodeficiency virus 1; Cf2Th-CD4/CCR5 target cells, 48 hours, luciferase; means and standard errors of four experiments; read-out: 50% inhibitory concentration (IC50), BG505. It counts as cell-based.
Test [4] concerns HIV-1 with HIV-1JR-FL Env. Nature of the test: microbe, parasite or virus in culture. It counts as cell-based. The note with it: Human immunodeficiency virus 1; Cf2Th-CD4/CCR5 target cells, 48 hours, luciferase; means and standard errors of four experiments; read-out: 50% inhibitory concentration (IC50), JR-FL.
Test [5] relates to HIV-1AD8 Env on VLPs. Nature of the test: Reversibility of compound effects on VLP Env conformation (19b antibody recognition after washing). As to conditions: for Durability / reversibility of Env conformational effects (in words): after washing. On the procedure:
as §1
For studies of the reversibility of effects, the compounds were added to the VLPs and mixed for several seconds at room temperature. Then the VLPs were pelleted (20,000×g for 30 minutes at 4° C.) twice, washing with 1.5 ml PBS with 2% DMSO. The pelleted VLPs were resuspended in 1 ml PBS with 2% DMSO and incubated at room temperature for various lengths of time (20 minutes—3 weeks). Control VLPs were incubated in the continued presence of the compounds at room temperature for the same length of time. Then the VLPs were pelleted (20,000×g for 30 minutes at 4° C.) and the pellet incubated with 1.5% Triton X-100 for 30 minutes at 4° C. The VLP lysates were centrifuged (20,000×g for 30 minutes at 4° C.) and the supernatants were incubated with antibodies (10 μg/ml) in a 50-μl volume with 25 mg/ml of Protein A-Sepharose beads for one hour at 4° C. The beads were pelleted (1000 rpm for 1 minute at room temperature) and washed three times with 1 ml wash buffer with 1% Triton X-100. The beads were suspended in NuPAGE LDS Sample Buffer (ThermoFisher), boiled and analyzed by Western blot, as described above.
The BMS-806-induced decrease in binding of the 19b anti-V3 antibody can be used as an indicator of BMS-806-Env binding, allowing estimation of the stability of the Env-compound complex. BMS-806 and BMS-529 were incubated with the HIV-1AD8 Env on VLPs. The VLPs were then washed and incubated at room temperature for various lengths of time in a buffer with (+/+) or without (+/−) compound. After this incubation, Env conformation was assessed using the 19b anti-V3 antibody, the 2G12 antibody (the binding of which is not affected by BMS-806), and a negative control human immunoglobulin (hIgG) preparation. 19b recognition of Env in the washed samples (+/−) was compared with those in the samples continuously incubated with the compound (+/+) and the untreated samples (−) (FIG. 4). […] Despite this slow rate of dissociation of compounds described herein from Env, the binding and the consequent effects of these compounds on Env conformation appear to be reversible.

A value given as a limit tells only on which side of the number the result lay.

For the molecule `O=C(Nc1cccc2c(C(=O)C(=O)N3CCN(C(=O)c4ccccc4)CC3)c[nH]c12)c1ccc(C2(C(F)(F)F)N=N2)cc1` [AEG-III-087], the IC50 is 0.06 nM in the test on HIV-1 with HIV-1AD8 Env; greater than 100 nM in test [2]; greater than 100 nM in test [3]; 1.9 nM in the test with HIV-1 with BG505 Env; 0.1 nM in test [4]. Further, in the test on HIV-1AD8 Env on VLPs [1], the “Spontaneous shedding of gp120 into the VLP supernatant” value is “decreased the shedding of gp120”. Further, the “VLP Env recognition by poorly neutralizing antibodies two weeks after treatment” value in the test with VLP HIV-1AD8 Env (washed, two weeks without compound) is “lowered Env recognition by poorly neutralizing antibodies”. Further, the “VLP Env recognition by bNAbs two weeks after treatment” value in the test with VLP HIV-1AD8 Env (PG9, PGT145, PGT151, 35022, 2F5, 4E10, 10E8) is “this increase was not seen”.

As to `O=C(Nc1cccc2c(C(=O)C(=O)N3CCN(C(=O)c4ccccc4)CC3)c[nH]c12)c1ccccc1` [AEG-III-096], the IC50 is 2.4 nM in the test on HIV-1 with HIV-1AD8 Env, greater than 100 nM in test [2], greater than 100 nM in test [3] and 0.9 nM in test [4]. In addition, the “Potency of inhibition of HIV-1 infection (in words)” value with HIV-1 with HIV-1AD8 Env is “potencies comparable to that of BMS-806”. Moreover, the “Durability / reversibility of Env conformational effects (in words)” value with HIV-1AD8 Env on VLPs [5] was “much faster reversibility”.

For `COc1cnc(-n2cnc(C)n2)c2[nH]cc(C(=O)C(=O)N3CCN(C(=O)c4ccccc4)CC3)c12` [BMS-529, reference compound], in the test on HIV-1AD8 Env on VLPs [5] (VLPs in PBS with 2% DMSO, room temperature), the “Time until conformational effects on Env are reversed after washing” value lay in the range of 2 to 4 days. The “Conformational effect on 19b binding after washing” value with HIV-1AD8 Env on VLPs [5] (twenty-four hours after washing, room temperature) is reported as “still apparent”.

For the molecule `COc1ccc(-c2ccc(CNC(=O)c3ccc(C4(C(F)(F)F)N=N4)cc3)o2)c2[nH]cc(C(=O)C(=O)N3CCN(C(=O)c4ccccc4)CC3)c12` [AEG-II-159], the IC50 was 0.2 nM in the test on HIV-1 with HIV-1AD8 Env; greater than 100 nM in test [2]; greater than 100 nM in test [3]; 0.8 nM with HIV-1 with BG505 Env; 1.6 nM in test [4]. For the same molecule, the “Durability / reversibility of Env conformational effects (in words)” value with HIV-1AD8 Env on VLPs [5] is “at least three weeks”.

Take `COc1ccc(-c2ccc(CNC(=O)c3ccccc3)o2)c2[nH]cc(C(=O)C(=O)N3CCN(C(=O)c4ccccc4)CC3)c12` [AEG-III-032]: the IC50 was 0.36 nM with HIV-1 with HIV-1AD8 Env; greater than 100 nM in test [2]; greater than 100 nM in test [3]; 1.5 nM with HIV-1 with BG505 Env; 0.6 nM in test [4]. The “Potency of inhibition of HIV-1 infection (in words)” value with HIV-1 with HIV-1AD8 Env is on record as “potencies comparable to that of BMS-806”.
